According to patent US10065956B2, “Ethynyl derivatives” (Hoffmann-La Roche Inc., priority 2015, dated 2018):

Molecular target: T1, human mGlu4 receptor (Homo sapiens, UniProt Q14833)
T1 construct: expressed in transfected cells; host or cells: monoclonal HEK-293 cell line, stably transfected
Assay: Ca2+ mobilization in vitro assay on recombinant human mGlu4 expressed in HEK293 cells (PAM, L-AP4 at EC20)
Type: cell-based
Conditions: for Emax: HEK293, maximal response in % of the maximal stimulatory effect obtained with saturating concentrations of L-AP4, read-out: Eff. (%); for EC50: HEK293 cells expressing human mGlu4, L-AP4 added at EC20
Excerpt: FIG. 1: Illustration of the experimental outline for mGlu4 PAM Ca2+ mobilization screening assay and the determination of EC50 and % Emax values.
Determination of EC50 Values Using a Ca2+ Mobilization In Vitro Assay on Recombinant Human mGlu4 Expressed in HEK293 Cells:
A monoclonal HEK-293 cell line stably transfected with a cDNA encoding for the human mGlu4 receptor was generated; for the work with mGlu4 Positive Allosteric Modulators (PAMs), a cell line with low receptor expression levels and low constitutive receptor activity was selected to allow the differentiation of agonistic versus PAM activity. Cells were cultured according to standard protocols (Freshney, 2000) in Dulbecco's Modified Eagle Medium with high glucose supplemented with 1 mM glutamine, 10% (vol/vol) heat-inactivated bovine calf serum, Penicillin/Streptomycin, 50 μg/ml hygromycin and 15 μg/ml blasticidin (all cell culture reagents and antibiotics from Invitrogen, Basel, Switzerland).
About 24 hrs before an experiment, 5×10^4 cells/well were seeded in poly-D-lysine coated, black/clear-bottomed 96-well plates. The cells were loaded with 2.5 μM Fluo-4AM in loading buffer (1×HBSS, 20 mM HEPES) for 1 hr at 37° C. and washed five times with loading buffer. The cells were transferred into a Functional Drug Screening System 7000 (Hamamatsu, Paris, France), and 11 half logarithmic serial dilutions of test compound at 37° C. were added and the cells were incubated for 10-30 min. with on-line recording of fluorescence. Following this pre-incubation step, the agonist (2S)-2-amino-4-phosphonobutanoic acid (L-AP4) was added to the cells at a concentration corresponding to EC20 with on-line recording of fluorescence; in order to account for day-to-day variations in the responsiveness of cells, the EC20 of L-AP4 was determined immediately ahead of each experiment by recording of a full dose-response curve of L-AP4. Responses were measured as peak increase in fluorescence minus basal (i.e. fluorescence without addition of L-AP4), normalized to the maximal stimulatory effect obtained with saturating concentrations of L-AP4. Graphs were plotted with the % maximal stimulatory using XLfit, a curve fitting program that iteratively plots the data using Levenburg Marquardt algorithm. The single site competition analysis equation used was y=A+((B−A)/(1+((x/C)D))), where y is the % maximal stimulatory effect, A is the minimum y, B is the maximum y, C is the EC50, x is the log 10 of the concentration of the competing compound and D is the slope of the curve (the Hill Coefficient). From these curves the EC50 (drug concentration at which 50% of the maximal receptor activation was achieved), the Hill coefficient as well as the maximal response in % of the maximal stimulatory effect obtained with saturating concentrations of L-AP4 were calculated (see FIG. 1). […] A depression of the signal observed after addition of the EC20 concentration of L-AP4 was indicative of an inhibitory activity of the test compound.

T1 sequence (Q14833 33-912): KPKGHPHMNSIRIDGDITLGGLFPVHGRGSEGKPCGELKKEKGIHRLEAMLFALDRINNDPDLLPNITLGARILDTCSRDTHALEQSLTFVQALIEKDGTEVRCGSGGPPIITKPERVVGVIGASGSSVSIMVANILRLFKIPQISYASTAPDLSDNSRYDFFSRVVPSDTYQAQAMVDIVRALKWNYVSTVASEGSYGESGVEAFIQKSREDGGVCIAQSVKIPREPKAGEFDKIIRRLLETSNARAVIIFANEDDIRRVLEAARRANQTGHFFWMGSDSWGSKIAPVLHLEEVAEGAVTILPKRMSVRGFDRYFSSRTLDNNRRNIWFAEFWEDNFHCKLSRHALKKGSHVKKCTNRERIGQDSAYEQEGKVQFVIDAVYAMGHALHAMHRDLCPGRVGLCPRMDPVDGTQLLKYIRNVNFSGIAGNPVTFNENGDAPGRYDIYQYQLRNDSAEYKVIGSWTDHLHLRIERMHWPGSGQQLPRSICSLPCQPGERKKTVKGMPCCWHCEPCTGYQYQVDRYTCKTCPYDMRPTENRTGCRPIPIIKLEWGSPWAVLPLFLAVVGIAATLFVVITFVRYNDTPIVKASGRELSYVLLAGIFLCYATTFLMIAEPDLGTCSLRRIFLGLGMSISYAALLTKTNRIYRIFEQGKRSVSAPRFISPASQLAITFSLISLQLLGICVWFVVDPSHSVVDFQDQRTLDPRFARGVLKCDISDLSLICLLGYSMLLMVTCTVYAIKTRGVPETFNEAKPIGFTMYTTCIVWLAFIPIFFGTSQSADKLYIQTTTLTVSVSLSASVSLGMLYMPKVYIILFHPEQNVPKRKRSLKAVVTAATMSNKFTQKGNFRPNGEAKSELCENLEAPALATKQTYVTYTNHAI

Emax	EC50	Compound
143%	83 nM	CC[C@@]1(c2ccn(C)n2)CC(=O)N(c2c(F)cc(C#Cc3ccccc3)cc2F)C(=O)N1C [Example 27, (6S)-3-[2,6-Difluoro-4-(2-phenylethynyl)phenyl]-6-ethyl-1-methyl-6-(1-methylpyrazol-3-yl)hexahydropyrimidine-2,4-dione]
99%	71 nM	CN1C(=O)N(c2c(F)cc(C#Cc3ccccc3)cc2F)C(=O)C[C@@]1(C)c1ccn(CC(C)(C)O)n1 [Example 63, (6S)-3-[2,6-Difluoro-4-(2-phenylethynyl)phenyl]-6-[1-(2-hydroxy-2-methyl-propyl)pyrazol-3-yl]-1,6-dimethyl-hexahydropyrimidine-2,4-dione]
141%	39 nM	CN1C(=O)N(c2c(F)cc(C#Cc3cccnc3)cc2F)C(=O)C[C@@]1(C)c1cnn(C)c1 [Example 24, (6S)-3-[2,6-Difluoro-4-[2-(3-pyridyl)ethynyl]phenyl]-1,6-dimethyl-6-(1-methylpyrazol-4-yl)hexahydropyrimidine-2,4-dione]
146%	126 nM	CC(C)n1ccc([C@]2(C)CC(=O)N(c3c(F)cc(C#Cc4ccccc4)cc3F)C(=O)N2C)n1 [Example 29, (6S)-3-[2,6-Difluoro-4-(2-phenylethynyl)phenyl]-6-(1-isopropylpyrazol-3-yl)-1,6-dimethyl-hexahydropyrimidine-2,4-dione]
147%	108 nM	CN1C(=O)N(c2c(F)cc(C#Cc3ccccc3)cc2F)C(=O)C[C@@]1(C)c1cnn(CCO)c1 [Example 23, (6S)-3-[2,6-Difluoro-4-(2-phenylethynyl)phenyl]-6-[1-(2-hydroxyethyl)pyrazol-4-yl]-1,6-dimethyl-hexahydropyrimidine-2,4-dione]
137%	93 nM	CN1C(=O)N(c2c(F)cc(C#Cc3ccccc3)cc2F)C(=O)C[C@@]1(C)c1cnn2ccccc12 [Example 14, (6S)-3-[2,6-Difluoro-4-(2-phenylethynyl)phenyl]-1,6-dimethyl-6-pyrazolo[1,5-a]pyridin-3-yl-hexahydropyrimidine-2,4-dione]
109%	121 nM	CN1C(=O)N(c2c(F)cc(C#Cc3ccccc3)cc2F)C(=O)C[C@@]1(C)c1cn(C)cn1 [Example 2, (6S)-3-[2,6-Difluoro-4-(2-phenylethynyl)phenyl]-1,6-dimethyl-6-(1-methylimidazol-4-yl)hexahydropyrimidine-2,4-dione]
99%	157 nM	CN1C(=O)N(c2c(F)cc(C#Cc3ccccc3)cc2F)C(=O)C[C@@]1(C)c1nn(C)c2ccccc12 [Example 8, (6S)-3-[2,6-Difluoro-4-(2-phenylethynyl)phenyl]-1,6-dimethyl-6-(1-methylindazol-3-yl)hexahydropyrimidine-2,4-dione]
128%	71 nM	CN1C(=O)N(c2c(F)cc(C#Cc3ccccc3)cc2F)C(=O)C[C@@]1(C)c1cnn(C2CCOC2)c1 (mixture of isomers) [Example 62, (6S)-3-[2,6-Difluoro-4-(2-phenylethynyl)phenyl]-1,6-dimethyl-6-[1-[(3RS)-tetrahydrofuran-3-yl]pyrazol-4-yl]hexahydropyrimidine-2,4-dione]
126%	39 nM	CC[C@@]1(c2cn[nH]c2)CC(=O)N(c2c(F)cc(C#Cc3ccccc3)cc2F)C(=O)N1C [Example 45, (6S)-3-[2,6-Difluoro-4-(2-phenylethynyl)phenyl]-6-ethyl-1-methyl-6-(1H-pyrazol-4-yl)hexahydropyrimidine-2,4-dione]
91%	59 nM	CN1C(=O)N(c2c(F)cc(C#Cc3ccccc3)cc2F)C(=O)C[C@@]1(C)c1cncn1C [Example 11, (6S)-3-[2,6-Difluoro-4-(2-phenylethynyl)phenyl]-1,6-dimethyl-6-(3-methylimidazol-4-yl)hexahydropyrimidine-2,4-dione]
139%	96 nM	CCn1ccc([C@]2(C)CC(=O)N(c3c(F)cc(C#Cc4ccccc4)cc3F)C(=O)N2C)n1 [Example 28, (6S)-3-[2,6-Difluoro-4-(2-phenylethynyl)phenyl]-6-(1-ethylpyrazol-3-yl)-1,6-dimethyl-hexahydropyrimidine-2,4-dione]
98%	36 nM	CN1C(=O)N(c2c(F)cc(C#Cc3ccccc3)cc2F)C(=O)C[C@@]1(C)c1cnn(C)c1 [Example 6, (6S)-3-[2,6-Difluoro-4-(2-phenylethynyl)phenyl]-1,6-dimethyl-6-(1-methylpyrazol-4-yl)hexahydropyrimidine-2,4-dione]
143%	59 nM	COCCn1ccc([C@]2(C)CC(=O)N(c3c(F)cc(C#Cc4ccccc4)cc3F)C(=O)N2C)n1 [Example 30, (6S)-3-[2,6-Difluoro-4-(2-phenylethynyl)phenyl]-6-[1-(2-methoxyethyl)pyrazol-3-yl]-1,6-dimethyl-hexahydropyrimidine-2,4-dione]
135%	86 nM	CN1C(=O)N(c2c(F)cc(C#Cc3ccccc3)cc2F)C(=O)C[C@@]1(C)c1cncs1 [Example 42, (6S)-3-[2,6-Difluoro-4-(2-phenylethynyl)phenyl]-1,6-dimethyl-6-thiazol-5-yl-hexahydropyrimidine-2,4-dione]
195%	90 nM	CN1C(=O)N(c2c(F)cc(C#Cc3ccccc3)cc2F)C(=O)C[C@@]1(C)c1cnco1 [Example 35, (6S)-3-[2,6-Difluoro-4-(2-phenylethynyl)phenyl]-1,6-dimethyl-6-oxazol-5-yl-hexahydropyrimidine-2,4-dione]
100%	147 nM	CN1C(=O)N(c2c(F)cc(C#Cc3ccccc3)cc2F)C(=O)C[C@@]1(C)c1ccnn1C [Example 7, (6S)-3-[2,6-Difluoro-4-(2-phenylethynyl)phenyl]-1,6-dimethyl-6-(2-methylpyrazol-3-yl)hexahydropyrimidine-2,4-dione]
196%	59 nM	CN1C(=O)N(c2c(F)cc(C#Cc3ccccc3)cc2F)C(=O)C[C@@]1(C)c1cnn(C)n1 [Example 33, (6S)-3-[2,6-Difluoro-4-(2-phenylethynyl)phenyl]-1,6-dimethyl-6-(2-methyltriazol-4-yl)hexahydropyrimidine-2,4-dione]
155%	81 nM	CN1C(=O)N(c2c(F)cc(C#Cc3ccccc3)cc2F)C(=O)C[C@@]1(C)c1cn(C)c2ncccc12 [Example 9, (6S)-3-[2,6-Difluoro-4-(2-phenylethynyl)phenyl]-1,6-dimethyl-6-(1-methylpyrrolo[2,3-b]pyridin-3-yl)hexahydropyrimidine-2,4-dione]
136%	45 nM	CC[C@@]1(c2cn[nH]c2)CC(=O)N(c2c(F)cc(C#Cc3cccnc3)cc2F)C(=O)N1C [Example 51, (6S)-3-[2,6-Difluoro-4-[2-(3-pyridyl)ethynyl]phenyl]-6-ethyl-1-methyl-6-(1H-pyrazol-4-yl)hexahydropyrimidine-2,4-dione]
114%	20 nM	CN1C(=O)N(c2c(F)cc(C#Cc3ccccc3)cc2F)C(=O)C[C@@]1(C)c1cnn[nH]1 [Example 32, (6S)-3-[2,6-Difluoro-4-(2-phenylethynyl)phenyl]-1,6-dimethyl-6-(1H-triazol-5-yl)hexahydropyrimidine-2,4-dione]
153%	99 nM	CN1C(=O)N(c2c(F)cc(C#Cc3ccccc3)cc2Cl)C(=O)C[C@@]1(C)c1cnn(C)c1 [Example 44, (6S)-3-[2-Chloro-6-fluoro-4-(2-phenylethynyl)phenyl]-1,6-dimethyl-6-(1-methylpyrazol-4-yl)hexahydropyrimidine-2,4-dione]
140%	79 nM	CN1C(=O)N(c2c(F)cc(C#Cc3cc(F)ccc3F)cc2F)C(=O)C[C@@]1(C)c1cnn(C)c1 [Example 48, (6S)-3-[4-[2-(2,5-Difluorophenyl)ethynyl]-2,6-difluoro-phenyl]-1,6-dimethyl-6-(1-methylpyrazol-4-yl)hexahydropyrimidine-2,4-dione]
